In experiment [1] the test system is trained panel of 4 to 8 people. Briefly: Cooling intensity by trained panel, isointensity method versus menthol. Type of experiment: in vivo. The note with it: aqueous solutions tasted, compared to aqueous solution of reference menthol at 2 ppm. The procedure:
The cooling intensity of the compounds was determined by a trained panel of 4 to 8 people according to the isointensity method as described below.
Aqueous solutions of various concentrations of a chemical compound were prepared and tasted. The cooling intensity of each solution was compared to that of an aqueous solution of the reference compound at 2 ppm, namely menthol.

The test system of a further experiment is mouth. Briefly: Application in mouthwash, cooling sensation in the mouth. As to conditions: 50 mL of 1% solution in alcohol per 1 liter mouthwash (also contains peppermint oil); 30 mL swished, gargled and spit out. Type of experiment: in vivo. The procedure: All the ingredients were mixed. 30 mL of obtained solution was put in the mouth, swished around, gargled and spit out.

This note sets out measurements from patent US20080319055A1, “Cooling Compounds” (GIVAUDAN SA, priority 2005, published 2008).

For `COc1ccc(C(=O)NC(C)(C(C)C)C(C)C)cc1` [Ex. 4, N-1-methyl-1-isopropylisobutyl anisamide], in experiment [1], the rel. cooling intensity is recorded as 1.1. Moreover, the “cooling sensation in mouthwash” value in the experiment with mouth is on record as “pleasant cooling sensation was felt in every area of the mouth”.
Take `COC(=O)c1ccc(C(=O)NC(C)(C(C)C)C(C)C)cc1` [Ex. 5C, N-(1-methyl-1-isopropyl-isobutyl) O-methylterephthalamate]: the rel. cooling intensity in experiment [1] was found to be 1.7.
`COC(=O)c1ccc(C(=O)NC2CC(C)CCC2C(C)C)cc1` (stereo not shown) [Ex. 5D, N-(3-p-menthyl) O-methylterephthalamate] displayed a rel. cooling intensity in experiment [1] of 2.5.
For `CCC(CC)(CC)NC(=O)c1ccc(-c2ccccc2)cc1` [Ex. 5E, N-(1,1-diethylpropyl)biphenyl-4-carboxamide], the rel. cooling intensity in experiment [1] is reported as 1.2.
In experiment [1], `CC(C)C(C)(NC(=O)c1ccc(-c2ccccc2)cc1)C(C)C` [Ex. 5F, N-(1-methyl-1-isopropyl-isobutyl) biphenyl-4-carboxamide] displayed a rel. cooling intensity of 1.5.
In experiment [1], `CC(C)C(NC(=O)c1ccc2c(c1)OCO2)C(C)C` [Ex. 5H, N-(1-isopropyl-isobutyl)benzo[1,3]dioxole-5-carboxamide] had a rel. cooling intensity of 0.9.
`CC(C)C(C)(NC(=O)c1ccc2c(c1)OCO2)C(C)C` [Ex. 5K, N-(1-methyl-1-isopropyl-isobutyl)benzo[1,3]dioxole-5-carboxamide] had a rel. cooling intensity in experiment [1] of 0.9.
As to `CCC(CC)(CC)NC(=O)c1ccc2c(c1)OCO2` [Ex. 5L, N-(1,1-diethylpropyl)benzo[1,3]dioxole-5-carboxamide], in experiment [1], the rel. cooling intensity is reported as 0.3.
Regarding `CC1(C)C2CCC1(C)C(NC(=O)c1ccccc1)C2` (stereo not shown) [Ex. 5M, N-bornyl benzamide], the rel. cooling intensity in experiment [1] was 0.6.
